According to US11033520B2, “Liposomal anticancer compositions” (IriSys, LLC, priority 2016, dated 2021):

How the values were obtained:
[1] = Total doxorubicin content, recovery and encapsulation efficiency of liposomal suspension (HPLC); assay type: physicochemical; settings: 50:1 lipid/drug
Procedure: All HPLC was performed using an Agilent 1260 Infinity system, equipped with a G13110B pump, 01329B autosampler, G1316A column compartment, and a G1315D diode-array detector. OpenLab CDS (EZChrom edition) software controlled all modules and was used for analysis and reporting of chromatography. A Phenomenex Luna C18 column (5μ, 150×4.6 mm; part #00G-4252-E0) was used for all analyses.
Chromatographic analysis of doxorubicin (DOX) was performed on the Agilent 1260 Infinity system using a C18 column (see above) with a column temperature of 40° C. and sample temperature at ambient conditions (˜25° C.). All mobile phase reagents were filtered with a 0.45 μm filter membrane prior to use. HPLC grade acetonitrile was from EMD Millipore. […] Mobile phase flow rate was set to 1.0 mL/min with a run time of 15 minutes. The diode array detector was operated at 487 nm with a bandwidth of 4 nm. Injection volume was set to 10 μL.
Standard stock solution of doxorubicin was prepared in a 0.9% saline, or methanol, or water solution (1 mg/mL). Calibration standards were prepared by diluting the stock solution in anhydrous methanol to bracket the target concentration for analysis. For this study, the doxorubicin solution was diluted with anhydrous methanol or IPA to the final concentration 50 μg/mL, 100 μg/mL and 200 μg/mL; respectively. Samples of liposomal suspension were also diluted with anhydrous methanol or IPA by a factor of 8 or 10 times prior to analysis.
Determination of doxorubicin in liposomal suspension. Followed doxorubicin loading liposomal suspension was subjected to 5× TFF to majorly remove free (not encapsulated) doxorubicin. To determine total doxorubicin concentration at TO (within one week of MFD) TFF washed liposomes were diluted with methanol or IPA and subjected to HPLC analysis. Doxorubicin content, percent of recovery (doxorubicin content in liposomal suspension relative to doxorubicin free base concentration used for remote loading), and encapsulation efficiency (%) are presented in the Table 9. Encapsulation efficiency (%) represents the difference between doxorubicin recovery (%) and free doxorubicin (%).

[2] = counter ion; cited from earlier work
[3] = tested on: Daudi cells; test: In vitro cell-based cytotoxicity assay (Alamar Blue), Daudi cells; settings: Homo sapiens, 1 hr exposure, 48 hrs culture
Procedure: Daudi cells (ATCC, CCL-213). Cells were plated in 96 well plates at the density 100K cells per well. Doxorubicin hydrochloride, Doxil®, or doxorubicin oxalate liposomes were appropriately diluted in Growth medium (RPMI-1640, 10% FBS) and added to the cells. After 1 hr of incubation at 37° C. plates were centrifuged, supernatant was removed via aspiration, 100 μL of fresh media were added into each well, and cells were cultured for 48 hrs.
(§1) On the day, 3 to assess cell viability, Alamar Blue solution was prepared in Growth medium (RPMI-1640, 10% FBS) at 1:250 dilution and added directly into cell media. After 6 hrs of incubation at 37° C. the resulting fluorescence was read on a plate reader. The fluorescence of cells that have not received any drug treatment was defined as maximum viability. The fluorescence of cell free media was defined as complete cell death. Data analysis was performed by using Prism nonlinear regression software (GraphPad Software) for the curve-fitting and determination of IC50 values.

[4] = tested on: Human B lymphoma cell line Ramos (RA 1); test: In vivo study: B lymphoma model in SCID Beige mice; settings: 3 mg doxorubicin/kg iv x3
Procedure: On the same day prior to administration into animals cell were counted, centrifuged at 12000 rpm, washed with sterile PBS, centrifuged again at 1200 rpm, resuspended in sterile PBS to the final cell count 35×10-per mL. Suspension of cells was administered into animals intravenously via single bolus injection to deliver 5×10^6 cells per mouse.
Four weeks old immune deficient SCID Beige, (Line—CB17.Cg-Prkdc^scidLyst^bg-J/Crl) mice were maintained on Chow diet. At the age of 8 weeks mice were subdivided in 3 groups. On the day 1, 5×10^6 B lymphoma cells were intravenously injected into each mouse (FIG. 2). […] On the day 2 and 3 all treatments were repeated (FIG. 2). Animals were monitored daily and weighed twice a week.
Treatment articles were administered intravenously in 120 μL via single bolus injection to deliver 60 μg of doxorubicin per mouse or ˜3 mg/kg dose.

[5] = tested on: Hela cells; test: cells; assay type: cell-based; settings: Homo sapiens, read-out: Hela, CC50, μM
Procedure: Hela cells (HeLa (ATCC CCL-2). Cells were plated in 96 well plates at the density 25K cells per well. Doxorubicin hydrochloride, Doxil®, or doxorubicin oxalate liposomes were appropriately diluted in Growth medium (DMEM, 5% FBS, 1% antibiotic, 1% HEPES) and added to the cells. After 1 hr of incubation at 37° C. plates were centrifuged, supernatant was removed via aspiration, 100 μL of fresh media were added into each well, and cells were cultured for 48 hrs.
as §1

[6] = tested on: nucleus; settings: within 8 h after administration; cited from earlier work

Structure (SMILES) | doxorubicin loading into liposomes with this counter ion (in words) ([1]; remote loading at 70° C.) | further results
O=C1O[C@H]([C@@H](O)CO)C(O)=C1O [Ascorbate] | no doxorubicin loading was observed | 
O=CO [Formate] | no doxorubicin loading was observed | 
O=C(O)CC(=O)O [Malonate] | no doxorubicin loading was observed | 
CC(=O)O [Acetate] | no doxorubicin loading was observed | 
COc1cccc2c1C(=O)c1c(O)c3c(c(O)c1C2=O)C[C@@](O)(C(=O)CO)C[C@@H]3O[C@H]1C[C@H](N)[C@H](O)[C@H](C)O1.Cl [Doxorubicin Hydrochloride, Doxorubicin hydrochloride] |  | CC50 [3]: 0.4 µM; survival compared to Placebo (in words) [4]: survivors demonstrated longest MST; death rate ([4]; day 13): 50%; CC50 [5]: 7 µM; drug translocated to / entered the nucleus [6]: 26%

Further lines, with some results ahead:

doxorubicin loading into liposomes with this counter ion (in words) ([1]; remote loading at 70° C.) | Structure (SMILES) | further results
no doxorubicin loading was observed | O=C(O)/C=C\C(=O)O [Maleate] | 
no doxorubicin loading was observed | N[C@@H](CS)C(=O)O [Cysteinate] | pKa 1 [2]: 1.96; pKa 2 [2]: 8.18
no doxorubicin loading was observed | O=C(O)CCC(=O)O [Succinate] | 
no doxorubicin loading was observed | O=C(O)c1ccccn1 [Picolinate] | 
no doxorubicin loading was observed | O=C(O)/C=C/C(=O)O [Fumarate] | 
no doxorubicin loading was observed | CC(=O)N[C@@H](CS)C(=O)O [N-Acetyl- L-cysteine] | pKa 1 [2]: 3.82; doxorubicin loading into liposomes with this counter ion (in words) ([1]; cold loading at room temperature): no doxorubicin loading was observed
